Assay results from patent publication US20060211698A1, “Bicyclic heteroaryl derivatives for treating viruses” (Genelabs, Inc., priority 2005, published 2006).

target: T1, HCV-NS5b (Hepatitis C virus genotype 1b, UniProt Q9WMX2); assay: HCV-NS5b Enzyme Assay; type: biochemical; settings: 1 μM test compound; incorporation of [3H]-UTP, 37° C., 2 hours
T1 construct: The cloned fragment was missing the C terminus 21 amino acid residues; (His)6 (C); made in house; host or cells: XL-1 cells (E. coli)
Excerpt: The coding sequence of NS5b protein was cloned by PCR from pFKI389luc/NS3-3′/ET as described by Lohmann, V., et al. (1999) Science 285, 110-113 using the following primers: • […] (SEQ. ID. NO. 1) • […] (SEQ. ID. NO. 2)
The cloned fragment was missing the C terminus 21 amino acid residues. The cloned fragment is inserted into an IPTG-inducible expression plasmid that provides an epitope tag (His)6 at the carboxy terminus of the protein.
The recombinant enzyme was expressed in XL-1 cells and after induction of expression, the protein was purified using affinity chromatography on a nickel-NTA column. Storage condition is 10 mM Tris-HCl pH 7.5, 50 mM NaCl, 0.1 mM EDTA, 1 mM DTT, 20% glycerol at −20° C.
The polymerase activity was assayed by measuring incorporation of radiolabeled UTP into a RNA product using a biotinylated, heteropolymeric template, which includes a portion of the HCV genome. Typically, the assay mixture […] contains 10 mM Tris-HCl (pH 7.5), 5 mM MgCl2, 0.2 mM EDTA, 10 mM KCl, 1 unit/μL RNAsin. 1 mM DTT, 10 μM each of NTP, including [^3H]-UTP, and 10 ng/μL biotinylated heteropolymeric template. 20× test compound in 2 μl's was then added as a 100% DMSO solution to achieve a final DMSO concentration of 5%. For IC50 determination a 10-point dose response was used. The compounds were serial diluted 2-fold […]. Typically for IC50's, compounds were tested starting at 50 uM or 2 μm depending on the potency. Reactions were started with addition of 10×NS5B in 4 μl's and allowed to incubate at 37° C. for 2 hours. Reactions were quenched with 8 μL of 100 mM EDTA and reaction mixtures (30 μL) were transferred to streptavidin-coated scintillation proximity microtiter plates (FlashPlates) and incubated at 4° C. overnight. Incorporation of radioactivity was determined by scintillation counting (cpm). The % Inhibition at a particular concentration was determined using the following equation, % Inhibition=100−[100*(cpm with inhibitor−bg)/(cpm with no inhibitor−bg)] where bg was the background with no enzyme.

Row | inhibition at 1 µM [%] | Structure (SMILES)
1 | 94.7 | Cc1nc(C)c(-c2ccc3cc(-c4c(C5CCCCC5)c5ccc(C(=O)O)cc5n4CC(=O)NCCN4CCOCC4)ccc3n2)s1 [Compound 237, 3-Cyclohexyl-2-[2-(2,4-dimethyl-thiazol-5-yl)-quinolin-6-yl]-1-[(2-morpholin-4-yl-ethylcarbamoyl)-methyl]-1H-indole-6-carboxylic acid]
2 | 85.6 | Cc1nc(C)c(-c2ccc3cc(-c4c(C5CCCCC5)c5ccc(C(=O)O)c(C)c5n4CC(=O)N4CCOCC4)ccc3n2)s1 [Compound 238, 3-Cyclohexyl-2-[2-(2,4-dimethyl-thiazol-5-yl)-quinolin-6-yl]-7-methyl-1-(2-oxo-2-morpholino-4-yl-ethyl)-1H-indole-6-carboxylic acid]
3 | 96.9 | Cc1nc(C)c(-c2ccc3cc(-c4c(C5CCCCC5)c5ccc(C(=O)O)cc5n4CC(=O)Nc4nn[nH]n4)ccc3n2)s1 [Compound 239, 3-Cyclohexyl-2-[2-(2,4-dimethyl-thiazol-5-yl)-quinolin-6-yl]-1-[(2H-tetrazol-5-ylcarbamoyl)-methyl]-1H-indole-6-carboxylic acid]
4 | 97.7 | Cc1nc(C)c(-c2ccc3cc(-c4c(C5CCCCC5)c5ccc(C(=O)NS(C)(=O)=O)cc5n4CC(=O)N4CCOCC4)ccc3n2)s1 [Compound 240, N-[3-Cyclohexyl-2-[2-(2,4-dimethyl-thiazol-5-yl)-quinolin-6-yl]-1-(2-morpholin-4-yl-2-oxo-ethyl)-1H-indole-6-carbonyl]-methanesulfonamide]
5 | 94.1 | Cc1nc(C)c(-c2ccc3cc(-c4c(C5CCCCC5)c5ccc(C(=O)O)cc5n4CC(=O)N4CCC(C(=O)O)CC4)ccc3n2)s1 [Compound 241, 1-[2-(4-Carboxy-piperidin-1-yl)-2-oxo-ethyl]-3-cyclohexyl-2-[2-(2,4-dimethyl-thiazol-5-yl)-quinolin-6-yl]-1H-indole-6-carboxylic acid]
6 | 63.6 | Cc1nc(C)c(-c2ccc3cc(-c4c(C5CCCCC5)c5ccc(C(=O)NCCC#N)cc5n4CC(=O)N4CCOCC4)ccc3n2)s1 [Compound 242, 3-Cyclohexyl-2-[2-(2,4-dimethyl-thiazol-5-yl)-quinolin-6-yl]-1-(2-morpholin-4-yl-2-oxo-ethyl)-1H-indole-6-carboxylic acid (2-cyano-ethyl)-amide]
7 | 37.8 | Cc1nc(C)c(-c2ccc3cc(-c4c(C5CCCCC5)c5ccc(C#N)cc5n4CC(=O)N4CCOCC4)ccc3n2)s1 [Compound 243, 3-Cyclohexyl-2-[2-(2,4-dimethyl-thiazol-5-yl)-quinolin-6-yl]-1-(2-morpholin-4-yl-2-oxo-ethyl)-1H-indole-6-carbonitrile]
8 | 97.2 | Cc1nc(C)c(-c2ccc3cc(-c4c(C5CCCCC5)c5ccc(-c6nnn[nH]6)cc5n4CC(=O)N4CCOCC4)ccc3n2)s1 [Compound 244, 2-[3-Cyclohexyl-2-[2-(2,4-dimethyl-thiazol-5-yl)-quinolin-6-yl]-6-(1H-tetrazol-5-yl)-indol-1-yl]-1-morpholin-4-yl-ethanone]
9 | 91.3 | Cc1nc(C)c(-c2ccc3cc(-c4c(C5CCCCC5)c5ccc(C(=O)NCCc6nnn[nH]6)cc5n4CC(=O)N4CCOCC4)ccc3n2)s1 [Compound 245, 3-Cyclohexyl-2-[2-(2,4-dimethyl-thiazol-5-yl)-quinolin-6-yl]-1-(2-morpholin-4-yl-2-oxo-ethyl)-1H-indole-6-carboxylic acid [2-(1H-tetrazol-5-yl)-ethyl]-amide]
10 | 96.9 | O=C(O)c1ccc2c(C3CCCCC3)c(-c3ccc4nc(-c5cccc(OC(F)(F)F)c5)ccc4c3)n(CC(=O)N3CCOCC3)c2c1 [Compound 246, 3-Cyclohexyl-1-(2-morpholin-4-yl-2-oxo-ethyl)-2-[2-(3-trifluoromethoxy-phenyl)-quinolin-6-yl]-1H-indole-6-carboxylic acid]
11 | 98.4 | O=C(O)c1ccc2c(C3CCCCC3)c(-c3ccc4nc(-c5cccc(C(F)(F)F)c5)ccc4c3)n(CC(=O)N3CCOCC3)c2c1 [Compound 247, 3-Cyclohexyl-1-(2-morpholin-4-yl-2-oxo-ethyl)-2-[2-(3-trifluoromethyl-phenyl)-quinolin-6-yl]-1H-indole-6-carboxylic acid]
12 | 95.2 | Cc1nc(C(F)(F)F)sc1-c1ccc2cc(-c3c(C4CCCCC4)c4ccc(C(=O)O)cc4n3CC(=O)N3CCOCC3)ccc2n1 [Compound 248, 3-Cyclohexyl-2-[2-(4-methyl-2-trifluoromethyl-thiazol-5-yl)-quinolin-6-yl]-1-(2-morpholin-4-yl-2-oxo-ethyl)-1H-indole-6-carboxylic acid]
13 | 99.5 | Cc1ccnc(-c2ccc3cc(-c4c(C5CCCCC5)c5ccc(C(=O)O)cc5n4CC(=O)N4CCOCC4)ccc3n2)c1 [Compound 249, 3-Cyclohexyl-2-[2-(4-methyl-pyridin-2-yl)-quinolin-6-yl]-1-(2-morpholin-4-yl-2-oxo-ethyl)-1H-indole-6-carboxylic acid]
14 | 99.9 | Cc1ccc(-c2ccc3cc(-c4c(C5CCCCC5)c5ccc(C(=O)O)cc5n4CC(=O)N4CCOCC4)ccc3n2)cc1C [Compound 250, 3-Cyclohexyl-2-[2-(3,4-dimethyl-phenyl)-quinolin-6-yl]-1-(2-morpholin-4-yl-2-oxo-ethyl)-1H-indole-6-carboxylic acid]
15 | 98.5 | COc1cc(OC)cc(-c2ccc3cc(-c4c(C5CCCCC5)c5ccc(C(=O)O)cc5n4CC(=O)N4CCOCC4)ccc3n2)c1 [Compound 251, 3-Cyclohexyl-2-[2-(3,5-dimethoxy-phenyl)-quinolin-6-yl]-1-(2-morpholin-4-yl-2-oxo-ethyl)-1H-indole-6-carboxylic acid]
16 | 95 | Cc1ccc(-c2ccc3cc(-c4c(C5CCCCC5)c5ccc(C(=O)O)cc5n4CC(=O)N4CCOCC4)ccc3n2)cc1 [Compound 252, 3-Cyclohexyl-1-(2-morpholin-4-yl-2-oxo-ethyl)-2-(2-p-tolyl-quinolin-6-yl)-1H-indole-6-carboxylic acid]
17 | 97.5 | COc1ccc(-c2ccc3cc(-c4c(C5CCCCC5)c5ccc(C(=O)O)cc5n4CC(=O)N4CCOCC4)ccc3n2)cc1OC [Compound 253, 3-Cyclohexyl-2-[2-(3,4-dimethoxy-phenyl)-quinolin-6-yl]-1-(2-morpholin-4-yl-2-oxo-ethyl)-1H-indole-6-carboxylic acid]
18 | 96.9 | COc1ccc(-c2ccc3cc(-c4c(C5CCCCC5)c5ccc(C(=O)O)cc5n4CC(=O)N4CCOCC4)ccc3n2)cc1 [Compound 254, 3-Cyclohexyl-2-[2-(4-methoxy-phenyl)-quinolin-6-yl]-1-(2-morpholin-4-yl-2-oxo-ethyl)-1H-indole-6-carboxylic acid]
19 | 97.4 | O=C(O)c1ccc2c(C3CCCCC3)c(-c3ccc4nc(-c5ccccc5F)ccc4c3)n(CC(=O)N3CCOCC3)c2c1 [Compound 255, 3-Cyclohexyl-2-[2-(2-fluoro-phenyl)-quinolin-6-yl]-1-(2-morpholin-4-yl-2-oxo-ethyl)-1H-indole-6-carboxylic acid]
20 | 98.1 | O=C(O)c1ccc2c(C3CCCCC3)c(-c3ccc4nc(-c5cccc([N+](=O)[O-])c5)ccc4c3)n(CC(=O)N3CCOCC3)c2c1 [Compound 256, 3-Cyclohexyl-2-[2-(3-nitro-phenyl)-quinolin-6-yl]-1-(2-morpholin-4-yl-2-oxo-ethyl)-1H-indole-6-carboxylic acid]
21 | 98.6 | COc1ccc(-c2ccc3cc(-c4c(C5CCCCC5)c5ccc(C(=O)O)cc5n4CC(=O)N4CCOCC4)ccc3n2)c(F)c1 [Compound 257, 3-Cyclohexyl-2-[2-(2-fluoro-4-methoxy-phenyl)-quinolin-6-yl]-1-(2-morpholin-4-yl-2-oxo-ethyl)-1H-indole-6-carboxylic acid]
22 | 97.4 | Cc1cc(-c2ccc3cc(-c4c(C5CCCCC5)c5ccc(C(=O)O)cc5n4CC(=O)N4CCOCC4)ccc3n2)c(C)s1 [Compound 258, 3-Cyclohexyl-2-[2-(2,5-dimethyl-thiophen-3-yl)-quinolin-6-yl]-1-(2-morpholin-4-yl-2-oxo-ethyl)-1H-indole-6-carboxylic acid]
23 | 95.8 | O=C(O)c1ccc2c(C3CCCCC3)c(-c3ccc4nc(-c5c(F)cccc5F)ccc4c3)n(CC(=O)N3CCOCC3)c2c1 [Compound 259, 3-Cyclohexyl-2-[2-(2,6-difluoro-phenyl)-quinolin-6-yl]-1-(2-morpholin-4-yl-2-oxo-ethyl)-1H-indole-6-carboxylic acid]
